Publication PMC9026428, “New Peptide Based Fluconazole Conjugates with Expanded Molecular Targets” (Pharmaceutics, 2022)
≈ marks a conversion by molar mass, not a printed value. Like-named read-outs stand apart in the source and are kept apart here. Non-standard residues stand in square brackets, D forms with d. Residues, ends and D or L forms follow the SMILES beside them. *: point of attachment. X1 = O=C(CCCC(=O)*)OC(Cn1cncn1)(Cn1cncn1)c1ccc(F)cc1F; Nle = CCCC[C@H](N)C(=O)O

Assays:
[1] = tested on: Candida albicans 247; assay: microbe, parasite or virus in culture; conditions: 37 °C; for MIC50 / MIC90: C. albicans 247 (fluconazole-resistant clinical isolate), RPMI 1640/MOPS pH 7.0, 24 h, triplicate; for MIC50: at least 50% growth inhibition vs growth control; for MIC90: lowest concentration with no visible growth
Method in brief: (§1)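 Broth microdilution per CLSI M27-A3 with minor modifications, in RPMI 1640 buffered to pH 7.0 with 0.165 M MOPS, 24 h at 37 °C, about 1% DMSO final, triplicate. B3 is a fluconazole-sensitive early isolate used to assess efflux-transporter removal.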

[2] = tested on: Candida albicans B3; assay: microbe, parasite or virus in culture; conditions: 37 °C; for MIC50 / MIC90: C. albicans B3 (fluconazole-sensitive isolate), RPMI 1640/MOPS pH 7.0, 24 h, triplicate; for MIC50: at least 50% growth inhibition vs growth control; for MIC90: lowest concentration with no visible growth
Method in brief: as §1

[3] = MTT cytotoxicity assay; conditions: human
Description: (§2) The assessment of antifungal potential of synthesized agents was carried out using four reference strains (C. albicans ATCC 10231, C. albicans SC5314, C. glabrata DSM […] and C. krusei DSM […]) and six clinical isolates of fluconazole-resistant C. albicans that were provided by the Hospital of Medical University of Gdansk, Poland. Moreover, four C. albicans isolates, assigned as B3, B4, Gu4 and Gu5, were used for investigation whether the synthesized fluconazole derivatives were effectively removed from the yeast cells by the drug efflux transporters, as in the case of fluconazole. These strains were kindly provided by Prof. Joachim Morschhäuser from University of Würzburg (Würzburg, Germany). Strains Gu4 and B3 were fluconazole-sensitive isolates obtained from early infection episodes, while Gu5 and B4 were the corresponding fluconazole-resistant isolates obtained from later episodes in the same patients treated with fluconazole. The lack of susceptibility of the Gu5 strain to fluconazole was a consequence of overexpression of CDR1/2 genes encoding ABC transporters, whereas the resistance of B4 strain was caused by overexpression of the MDR1 gene encoding a membrane transport protein of the major facilitator superfamily (MFS). All of these Candida spp. strains were maintained on YPD agar plates (1% (w/v) yeast extract, 2% (w/v) peptone, 2% (w/v) glucose, 2% (w/v) agar) at 30 °C for 16–24 h. For all of the assays aimed at assessing the antifungal potential of the synthesized agents, the yeasts were cultivated at 37 °C in RPMI 1640 medium (with L-glutamine, without sodium bicarbonate, Sigma-Aldrich, Darmstadt, Germany)) buffered to a pH of 7.0 with 0.165 M morpholinepropanesulfonic acid (MOPS) buffer (Sigma-Aldrich). In this study, we used the human foreskin fibroblast cell line Hs27 (ATCC CRL 1634TM) and the human endothelial cell line HUVEC (C2519A), purchased from Lonza Group AG, (Basel, Switzerland). The Hs27 cells were maintained in cell media consisting of Dulbecco’s modified Eagles medium (DMEM), (Corning, Arizona, USA) with 10% fetal bovine serum (FBS), (Corning, Port Elizabeth, South Africa), 1% penicillin/streptomycin (Sigma-Aldrich Inc., Darmstadt, Germany), and 1% L-glutamine (Corning, Arizona, USA). The human endothelial cell line was maintained in cell media consisting of Endothelial Cell Growth Medium-2 Single Quots Kit (Lonza, USA). Both cell lines were cultured in an incubator at 37 °C and 5% CO2.
(§3) Hs27 and HUVEC mammalian cell lines were cultured as mentioned above. Once cell lines were about 80% confluent, cells were counted by a hemacytometer (Hausser Scientific, Horsham, PA, USA) and plated in 96-well microtiter plates at concentrations of 4500 cells per well for Hs27 and 2000 cells per well for HUVEC. Cells were allowed to attach overnight. […] The final concentration of DMSO was ensured to be around 1% in all experiments. Cells were incubated with studied compounds for 72 h at 37 °C and 5% CO2. After incubation, 20 µL of MTT solution in PBS (4 mg/mL) was added to all wells and incubated further for 3 h at 37 °C. Formed formazan crystals were dissolved in 150 µL DMSO, and absorbance was measured using an Asys UVM340 multi-well plate reader at λ = 540 nm. Cytotoxicity was determined compared to drug-free control. All experiments were performed in biological triplicates.

[4] = tested on: HUVEC cells (human umbilical venous endothelial primary cells); assay: MTT cytotoxicity assay
Description: as §2, §3

[5] = tested on: Candida spp. strains tested; assay: Antifungal activity against the whole panel of strains tested; assay type: cell-based; conditions: panel of Table 2, 8–250 µM
Description: Antifungal activity of the tested compounds against yeast cells was determined in 96-well plates as described in the CLSI document M27-A3 [39], with minor modifications (CLSI, 2008). Suspensions of the microorganisms were prepared by taking one loop of pure culture into sterile water and adjusting optical density to 0.1 at 660 nm wavelength and further 50-fold dilution in RPMI 1640 medium, resulting in cell concentration of approximately 2 × 10^4 CFU/mL [21]. Then, 100 μL of cells were added to the wells of a 96-well microtiter plate that contained 16–500 μM tested compounds and 16–500 μM of FLC or 0.2–62 μM AmB. The plates were incubated for 24 h at 37 °C. Each test was performed in triplicate. […] The MIC90 was defined as the lowest concentration of drug showing no visible growth; MIC50 was defined as the concentration that yielded at least 50% growth inhibition when compared with the growth control well.

[6] = tested on: Hs27 cells (human foreskin fibroblast cell line); assay: MTT cytotoxicity assay
Description: as §2, §3

[7] = MTT cytotoxicity assay; conditions: human; remark: listed apart in the source
Description: as §2, §3

[8] = tested on: C. albicans SC5314; conditions: C. albicans SC5314, 1 × MFC, time-kill over 24 h, RPMI 1640, 37 °C
Description: Antifungal time-kill studies were carried out by a method previously described and evaluated by Klepser et al. [40]. A starting inoculum was prepared by inoculating a tube of sterile water with growth from 24 h YPD agar plates (C. albicans SC5314), and OD660 was adjusted to about 0.1 (around 10^6 cells per 1 mL). […] A negative control (growth medium without drug or organism) was also included at each time of testing. Tubes were incubated at 37 °C on an orbital shaker and vortexed before removing a sample for the determination of colony counts. After the appropriate time of incubation (0.5, 2, 4, 6, and 24 h), 1 mL of each suspension was centrifuged (2 min, 9170× g), and the pellet was re-suspended in 1 mL of PBS pH 7.4. Ten-fold serial dilutions with PBS were prepared, and 100 μL of each was inoculated on YPD agar plates in duplicate. Plates were incubated for 24 h at 37 °C. Colony forming units in the range of 30–300 were counted (on the plates containing from 30 to 300 colonies) and the number of yeast cells in 1 mL (CFU/mL) was calculated [21].

[9] = tested on: C. albicans SC5314; assay: Membrane permeabilization assay by propidium iodide uptake (flow cytometry, fluorescence microscopy); assay type: cell-based, Candida albicans
Description: Suspensions of C. albicans SC5314 were prepared by taking one loop of pure culture growth from 24 h YPD agar plates into RPMI 1640 medium and adjusting optical density to 0.1 at 660 nm wavelength. […] The cell suspensions were then treated for 0.5, 2, 4, 6, and 24 h at 37 °C with continuous agitation (180 rpm). The cells were then centrifuged and resuspended in 200 µL of PBS buffer (pH 7.4). Subsequently, cells were treated with propidium iodide (1 mg/mL, final concentration) and incubated for 30 min at room temperature in the dark. Cellular fluorescence was visualized using lens 20×, using Olympus Fluorescence Microscope BX60 (Olympus, Tokyo, Japan). The images were also post-processed utilizing cell Sens program. The fluorescence intensity emitted by DNA-bound propidium iodide was measured using a flow cytometer (Merck Millipore guava easyCyte 8, Darmstadt, Germany). Data were obtained from at least two independent experiments.

[10] = HUVEC cells, MTT, 72 h, 37 °C, 100–1.5 μM, biological triplicates
[11] = Hs27 cells, MTT, 72 h, 37 °C, 100–1.5 μM, biological triplicates

| SMILES | MIC50 [1] [µM] | MIC90 [1] [µM] | MIC50 [2] [µM] | MIC90 [2] [µM] | IC50 at 72 h [3] [µM] | In vitro cytotoxicity IC90 ± SEM [4, 10] [µM] | antifungal activity against the strains tested, in words [5] | In vitro cytotoxicity IC90 ± SEM [6, 11] [µM] | IC50 at 72 h [7] [µM] | MFC ([1]; C. albicans 247, aliquots plated on YPD agar, 24 h, lowest concentration with no colony growth) [µM] | MFC ([2]; C. albicans B3, aliquots plated on YPD agar, 24 h, lowest concentration with no colony growth) [µM] | reduction in yeast cell count [8] [log10] | cell membrane disruption (PI uptake), in words [9] | IC50 [4] [µM] | In vitro cytotoxicity IC90 ± SEM [4] [µM] | IC50 [6] [µM] | In vitro cytotoxicity IC90 ± SEM [6] [µM] |
| --- | --- | --- | --- | --- | --- | --- | --- | --- | --- | --- | --- | --- | --- | --- | --- | --- | --- |
| CSCC[C@H](NC(=O)[C@H](C)NC(=O)[C@H](CCCNC(=N)N)NC(=O)[C@H](CCCCN)NC(=O)[C@H](Cc1c[nH]c2ccccc12)NC(=O)[C@H](CCC(N)=O)NC(=O)[C@H](Cc1ccccc1)NC(=O)[C@H](CS)NC(=O)CCCC(=O)OC(Cn1cncn1)(Cn1cncn1)c1ccc(F)cc1F)C(=O)N[C@@H](CCCNC(=N)N)C(=O)N[C@@H](CCCCN)C(=O)N[C@H](C(=O)N[C@@H](CCCNC(=N)N)C(N)=O)C(C)C [FLCpOH-HLopt2-NH2] (X1-CFQWKRAMRKVR-NH2) | >250 | >250 | >250 | >250 | > 100 | >100 | moderately or poorly active | >100 | > 100 |  |  |  |  |  |  |  |  |
| CSCC[C@H](NC(=O)[C@H](CCCNC(=N)N)NC(=O)[C@H](Cc1c[nH]c2ccccc12)NC(=O)[C@H](CCC(N)=O)NC(=O)[C@H](Cc1c[nH]c2ccccc12)NC(=O)[C@H](CCCNC(=N)N)NC(=O)[C@H](CCCNC(=N)N)NC(=O)[C@H](CS)NC(=O)[C@H](CCCCN)NC(=O)[C@H](Cc1ccccc1)NC(=O)CCCC(=O)OC(Cn1cncn1)(Cn1cncn1)c1ccc(F)cc1F)C(N)=O [FLCpOH-LFacinB(2-11)-NH2] (X1-FKCRRWQWRM-NH2) | 190 (≈ 361 µg/mL) | 250 (≈ 475 µg/mL) | 125 (≈ 237 µg/mL) | 250 (≈ 475 µg/mL) | > 100 | >100 | moderately or poorly active | >100 | > 100 |  |  |  |  |  |  |  |  |
| CCCC[C@H](NC(=O)CCCC(=O)OC(Cn1cncn1)(Cn1cncn1)c1ccc(F)cc1F)C(=O)N[C@@H](Cc1ccccc1)C(=O)N[C@@H](CCCCN)C(=O)N[C@@H](CS)C(=O)N[C@@H](CCCNC(=N)N)C(=O)N[C@@H](CCCNC(=N)N)C(=O)N[C@@H](Cc1c[nH]c2ccccc12)C(=O)N[C@@H](CCC(N)=O)C(=O)N[C@@H](Cc1c[nH]c2ccccc12)C(=O)N[C@@H](CCCNC(=N)N)C(=O)N[C@@H](CCCC)C(=O)N[C@@H](CCCCN)C(=O)N[C@@H](CCCCN)C(=O)N[C@@H](CC(C)C)C(=O)NCC(N)=O [FLCpOH-LFacinB[Nle^1,11]-NH2] (X1-[Nle]FKCRRWQWR[Nle]KKLG-NH2) | 45 (≈ 109 µg/mL) | 62 (≈ 150 µg/mL) | 45 (≈ 109 µg/mL) | 62 (≈ 150 µg/mL) | 75.6 ± 1.73 | >100 | moderately or poorly active | >100 | > 100 |  |  |  |  |  |  |  |  |
| CC[C@H](C)[C@H](NC(=O)[C@H](CCCCN)NC(=O)[C@H](CCCCN)NC(=O)[C@H](C)NC(=O)[C@H](CC(C)C)NC(=O)[C@H](C)NC(=O)[C@H](C)NC(=O)[C@H](CC(C)C)NC(=O)[C@H](C)NC(=O)[C@H](CCCCN)NC(=O)[C@H](CC(C)C)NC(=O)[C@H](CC(N)=O)NC(=O)[C@@H](NC(=O)[C@H](CCCCN)NC(=O)CNC(=O)[C@H](CC(C)C)NC(=O)[C@H](CC(C)C)NC(=O)[C@H](Cc1ccc(O)cc1)NC(=O)CNC(=O)[C@H](C)NC(=O)CCCC(=O)OC(Cn1cncn1)(Cn1cncn1)c1ccc(F)cc1F)[C@@H](C)CC)C(=O)N[C@@H](CC(C)C)C(N)=O [FLCpOH-TP10-NH2] | 45 (≈ 116 µg/mL) | 62 (≈ 160 µg/mL) | 31 (≈ 80.1 µg/mL) | 62 (≈ 160 µg/mL) |  | 34.30 ± 1.00 |  | 28.81 ± 0.87 |  | 250 (≈ 646 µg/mL) | 62 (≈ 160 µg/mL) | 1 | significant cell membrane damage |  |  |  |  |
| O=C(O)CCCC(=O)OC(Cn1cncn1)(Cn1cncn1)c1ccc(F)cc1F [FLCpOH] | >250 | >250 | >250 | >250 |  |  | did not exert any antifungal activity |  |  |  |  |  |  | > 100 | >100 | > 100 | >100 |
